{"source": "paper PMC10428208", "about": "“Phototoxicity of Tridentate Ru(II) Polypyridyl Complex with Expanded Bite Angles toward Mammalian Cells and Multicellular Tumor Spheroids” (Inorganic Chemistry, 2023)", "key": {"[1]": {"parameters": "method as in doi:10.3390/organoids1020012, PMID 35485712", "settings": "previously published, 298 K, deaerated MeOH/EtOH solution; printed in the MeCN row; cited from earlier work"}, "[2]": {"system": "HPAC multicellular spheroids (3D)", "type": "cell-based, human", "settings": "24 h treatment, 23.5 h recovery, CellTiter-Glo 3D, average of three plates", "experimental": "Spheroid viability was evaluated using a CellTiter-Glo 3D assay. Although the alamar blue assay is a robust and reliable option for 2D cell viability, the CellTiter-Glo 3D assay is specifically designed to penetrate deeper into 3D cell culture and thus offers better specificity for these studies. Cells were seeded in round-bottom 96 well plates at 2 × 10^4 cells per well and grown for 96 h. The cells were treated for 24 h and a media change performed. A 470 nm LED was used to irradiate the spheroids at 4.27 ± 0.41 J/cm^2 (30 min at 2.37 ± 0.23 mW/cm^2) and a dark control plate was performed simultaneously. Irradiation conditions were tested on untreated spheroids to confirm whether viability remained unaffected at this irradiation dosage before any experiments were performed. The spheroids were allowed to recover and the CellTiter-Glo 3D assay was performed to determine cell viability as per the manufacturer’s protocol. Percentage cell viability was determined relative to the untreated control spheroids.\nThe dark and phototoxicity of the parent and peptide conjugates were also assessed in HPAC spheroids. […] Cell viability was determined using the CellTiter-Glo 3D luminescence-based assay, and viability assays were performed in triplicate. […] As in the 2D alamar blue assay protocol, % viability is calculated relative to untreated control spheroids."}, "[3]": {"system": "HPAC spheroids", "assay": "Uptake in spheroids, confocal imaging", "settings": "24 h incubation", "method": "HPAC cells were seeded in U-bottom 96 well-plates pre-treated with 0.5% polyHEMA [poly(2-hydroxyethyl methacrylate), Sigma in 95% ethanol] at 2 × 10^4 cells per well. The plate was then centrifuged at 700 rpm at 37 °C using a BMG Labtech ClarioStar (plus) plate reader for 10 min. The cells were incubated for 96 h to allow spheroid formation before any dye was added for imaging studies. Ru-bqp-ester, Ru-bqp-MPP, and Ru-bqp-R8 were added to the spheroids at 30 and 100 μM in the 96 well plates and after 24 h incubation, the spheroids were carefully transferred to an 8-chamber slide (ibidi), with a single spheroid per chamber, and directly imaged using a Leica TCS DMi8 confocal microscope (40× oil immersion objective). Hoechst 33342 nuclear stain (1 μg/mL) was added to the spheroids for 45 min as a contrast agent and excited using a 405 nm laser with emission collected between 425 and 475 nm. The Ru(II) complexes were excited using a white light laser at 490 nm and emission collected between 580 and 730 nm. Spheroid images were acquired using z-scanning across the z-axis of the samples. On average, 40–50 images were acquired per z-scan and used to obtain 3D spheroid reconstructions using Leica Application Suite X (LAS X) software.\nConfocal fluorescence imaging was performed to determine if the cellular uptake observed in 2D culture extends to 3D models. […]"}, "[4]": {"system": "A549 cells", "experimental": "(§1) All cell monolayers were prepared as described above for the phototoxicity assay. A549 and CHO cells were treated at varying concentrations of the complexes and incubated for 30 min in the absence of light, HPAC were incubated for 2 h to allow uptake. A 470 nm blue light LED array was used to irradiate the cells in the wells at a total dose of 17 ± 1.64 J/cm^2 (2 h at 2.37 ± 0.23 mW/cm^2). A dark control plate was performed alongside all phototoxicity plates. Irradiation conditions were tested on untreated cells to confirm cells remained viable at this dose before any experiments were performed and each phototoxicity plate included untreated test wells for cell viability comparison. All viability assays were performed in triplicate.\nThe phototoxicities of the Ru-bqp-ester, Ru-bqp-R8, and Ru-bqp-MPP were next compared across the three cell line monolayers. Two identical plates, a dark control and phototoxicity plate, were prepared and incubated with varying concentrations of Ru-bqp-ester, Ru-bqp-R8, and Ru-bqp-MPP for 30 min or 2 h depending on the cell line. The test solutions were then decanted, and the wells replaced with phenol red free media. The phototoxicity plate was irradiated using a 470 nm LED, corresponding to which is close to the absorbance maximum associated with the ^1MLCT of the complex, total irradiation dose 17 ± 1.64 J/cm^2 (constituting 2 h at 2.37 ± 0.23 mW/cm^2) at 37 °C, and the control plate was maintained under the same conditions in the dark. The cells were then incubated for a further 21.5 h at 37 °C with 5% CO2 to allow for cell recovery. An alamar blue assay was performed to assess cell viability.\nTo overcome potential efflux of the complexes from the A549 cells, a shorter complex incubation time of 30 min was selected prior to irradiation."}, "[5]": {"system": "CHO cells", "type": "cell-based, Chinese hamster", "settings": "24 h incubation in the dark, alamar blue added immediately, no recovery, N=3, read-out: IC50, dark toxicity", "experimental": "(§2) The alamar blue assay (Invitrogen) was used to assess the viability of A549, CHO, and HPAC cell monolayers treated with the Ru(II) probes, Ru-bqp-ester, Ru-bqp-MPP, Ru-bqp-R8. CHO, A549, and 2D HPAC cells were seeded in a 96-well plate (Nunc, flat bottom cell culture treated) at 1 × 10^4 cells per well, i.e., in 100 μL media for 24 h at 37 °C with 5% CO2. Ru-bqp-ester, Ru-bqp-R8, and Ru-bqp-MPP were added for 24 h at 37 °C and 5% CO2 in the absence of light. The alamar blue (Resazurin) assay was performed to measure cell viability by replacing the test solution with 100 μL of a 10% v/v media/resazurin solution and incubating for 5 h at 37 °C in the absence of light. Absorbance was measured using a BMG Labtech ClarioStar (plus) plate reader at 570 and 600 nm (corrected for background subtraction). Cell viability is presented as a percentage (%) compared to untreated control wells.\n(§3) The alamar blue (Resazurin) assay was used to assess cell viability of CHO, A549, and HPAC cell monolayers after 24 h incubation in the dark with the complexes and conjugates. In the presence of metabolically active cells, the alamar blue dye is reduced to resorufin and changes from navy blue to a pink color depending on the number of viable cells. Thus, this assay can be used as a simple direct indicator of cell viability. […]"}, "[6]": {"system": "A549 cells", "settings": "read-out: IC50, dark toxicity; A549, 24 h incubation in the dark, alamar blue added immediately, no recovery, N=3", "experimental": "as §2, §3"}, "[7]": {"assay": "Photophysical measurements (luminescence lifetime, quantum yield)", "type": "physicochemical", "experimental": "Absorbance measurements of the Ru(II) complexes at 20 μM were performed using a Jasco V670 spectrophotometer. Emission spectra were collected using a Varian Cary Eclipse fluorescence spectrophotometer and luminescent lifetime measurements were performed on a PicoQuant FluoTime 100 FLS TCSPC system using a 450 nm pulsed laser and an external pulse generator. Lifetime decay curves were analyzed using the PicoQuant Fluofit software with fitting criteria; 0.9 < X^2 < 1.1. For O2 sensitivity studies, the emission spectrum and luminescent lifetime of each complex (10 μM) were recorded under O2 saturation, and after N2 purge for 20 min. All measurements were performed in triplicate and reported as the mean ± SD."}, "[8]": {"system": "HPAC cell monolayers", "type": "cell-based, human", "settings": "24 h incubation in the dark, alamar blue added immediately, no recovery, N=3, read-out: IC50, dark toxicity", "experimental": "as §2, §3"}, "[9]": {"system": "HPAC 2D cell monolayers", "type": "cell-based, human", "experimental": "as §1\n(§4) The test solutions were then decanted, and the wells replaced with phenol red free media. The phototoxicity plate was irradiated using a 470 nm LED, corresponding to which is close to the absorbance maximum associated with the ^1MLCT of the complex, total irradiation dose 17 ± 1.64 J/cm^2 (constituting 2 h at 2.37 ± 0.23 mW/cm^2) at 37 °C, and the control plate was maintained under the same conditions in the dark. The cells were then incubated for a further 21.5 h at 37 °C with 5% CO2 to allow for cell recovery. An alamar blue assay was performed to assess cell viability.\nThe HPAC cells required a longer incubation period of 2 h prior to irradiation to account for slower uptake. […] In summary, Ru-bqp-ester is minimally toxic in the dark but highly phototoxic in all test cells when activated using a 470 nm LED. Furthermore, the peptide conjugates Ru-bqp-R8 and Ru-bqp-MPP show phototoxic potential in cancerous cell lines A549 and HPAC selected for analysis. The increased uptake of the MPP peptide conjugate into the mitochondria, as determined by our co-localization studies, could be linked to the higher phototoxicity of the complex in A549 and HPAC cells and also the increased dark toxicity in HPAC and CHO cell monolayers in comparison to the parent and R8 peptide conjugate."}, "[10]": {"system": "CHO cells", "assay": "Phototoxicity with dark control plate, 470 nm LED, alamar blue", "type": "cell-based, Chinese hamster", "settings": "30 min incubation, 470 nm LED 17 J/cm^2, alamar blue, triplicate, read-out: IC50 under irradiation", "experimental": "as §1\nas §4, with “The cells were then incubated for a further 21.5 h at 37 °C with 5% CO2 to allow for cell recovery. An alamar blue assay was performed to assess cell viability.” left out\nSimilar to the phototoxicity studies in A549 cells, an incubation time of 30 min was selected for CHO cells to allow uptake. […] Cell viability was determined relative to untreated control wells using an alamar blue assay. […]"}, "[11]": {"system": "HL60 leukemia cells", "parameters": "method as in PMID 22553960", "settings": "cited from earlier work"}, "[12]": {"system": "A549 cell monolayers", "parameters": "method as in PMID 22553960", "settings": "cited from earlier work"}, "[13]": {"system": "HeLa cells", "settings": "irradiation dose of 5 J/cm^2; cited from earlier work", "description": "It is important to highlight that a direct comparison between the other reported PIs is difficult to make because of the diversity of conditions used to determine PI values. Because PI is influenced by a range of factors, including the cell type extent of permeability of a given agent and the irradiation dose.[72] […] Based on control studies with untreated CHO, A549, and HPAC cell monolayers, we selecte ..."}}, "note": "Read-outs that look alike come from different tables or passages of the source. Marks after values point to notes of the source that are not given here."}
{"compound": "[Ru(bqp)(bqpCOOEt)]^2+ [Ru-bqp-ester]", "values": [{"measurement": "emission quantum yield Φ", "setting": "[1]", "result": 4, "unit": "%"}, {"measurement": "τlum deaerated", "setting": "[1]", "result": "4300 ^a ns"}, {"measurement": "IC50", "setting": "[2]; 470 nm LED 4.27 ± 0.41 J/cm^2 (30 min), read-out: IC50 light, HPAC multicellular spheroids (3D)", "result": "> 100", "unit": "µM"}, {"measurement": "IC50", "setting": "[2]; dark control plate, read-out: IC50 dark, HPAC multicellular spheroids (3D)", "result": "> 100", "unit": "µM"}, {"measurement": "uptake in HPAC spheroids", "setting": "[3]; 30 μM", "result": "some uptake"}, {"measurement": "uptake in HPAC spheroids", "setting": "[3]; 100 μM", "result": "complete internalization"}, {"measurement": "cell viability, A549 dark control", "setting": "[4]; dark control plate, 30 min incubation, up to 100 μM, not graphed", "result": "> 80", "unit": "%"}, {"measurement": "A549 cells dead following photoirradiation", "setting": "[4]; dose of <5 μM, 30 min incubation, 470 nm LED 17 J/cm^2", "result": "More than 70%"}, {"measurement": "IC50", "setting": "[4]; read-out: IC50 under irradiation, A549, 30 min incubation, 470 nm LED 17 ± 1.64 J/cm^2 (2 h), 21.5 h recovery, alamar blue", "result": "< 5", "unit": "µM"}, {"measurement": "IC50", "setting": "[5]", "result": "> 100", "unit": "µM"}, {"measurement": "IC50", "setting": "[6]", "result": "> 100", "unit": "µM"}, {"measurement": "τlum aerated", "setting": "[7]; MeCN, mean ± SD of triplicate", "result": "384 ± 1", "unit": "ns"}, {"measurement": "τlum aerated", "setting": "[7]; PBS (pH 7.4), 450 nm pulsed laser, TCSPC, mean ± SD of triplicate", "result": "782 ± 18", "unit": "ns"}, {"measurement": "τlum deaerated", "setting": "[7]; PBS (pH 7.4), deaerated (N2 purge 20 min), mean ± SD of triplicate", "result": "1320 ± 20", "unit": "ns"}, {"measurement": "emission lifetime on deaeration", "setting": "[7]; PBS buffer (pH 7.4), deaerated", "result": "over 1.3 μs"}, {"measurement": "IC50", "setting": "[8]", "result": "> 100", "unit": "µM"}, {"measurement": "IC50", "setting": "[9]; 2 h incubation, 470 nm LED 17 J/cm^2, read-out: IC50 under irradiation, HPAC cells", "result": "0.77 ± 0.11", "unit": "µM"}, {"measurement": "IC50", "setting": "[9]; dark control plate, 2 h incubation then recovery in the dark, alamar blue, average of three plates, triplicate per plate, read-out: IC50 dark, HPAC 2D cell monolayers", "result": "585 ± 6.28", "unit": "µM"}, {"measurement": "PI (phototoxic index), HPAC 2D cell monolayers", "setting": "[9]; ratio of dark to light IC50 values, 17 ± 1.64 J/cm^2 at 470 nm", "result": 760}, {"measurement": "IC50", "setting": "[10]", "result": "< 5", "unit": "µM"}]}
{"compound": "NCC(=O)CCC(=O)O", "note": "[ALA, aminolevulinic acid]", "values": [{"measurement": "PI", "setting": "[11]", "result": "> 18"}, {"measurement": "PI", "setting": "[12]", "result": 4.2}]}
{"compound": "Photofrin", "values": [{"measurement": "PI", "setting": "[13]", "result": "> 10"}]}
